Results reported in ChEMBL document CHEMBL1681708, “The synthesis and structure-activity relationship of pyridazinones as glucan synthase inhibitors” (Bioorg Med Chem Lett, 2011).
Converted amounts (≈) assume the structure as drawn.

What was measured:
Nakaseomyces glabratus = assay: Antifungal activity against Candida glabrata C624 by broth dilution method; assay type: functional; details: read-out: MIC100
Candida albicans = assay: Antifungal activity against Candida albicans C693 by broth dilution method; assay type: functional; details: for MIC: read-out: MIC100
Beta-1,3-glucan synthase = target: T1, Beta-1,3-glucan synthase (Candida albicans, UniProt O13383); assay: Inhibition of Candida albicans BWP17 1,3-beta-D-glucan synthase
T1 sequence (O13383 whole entry): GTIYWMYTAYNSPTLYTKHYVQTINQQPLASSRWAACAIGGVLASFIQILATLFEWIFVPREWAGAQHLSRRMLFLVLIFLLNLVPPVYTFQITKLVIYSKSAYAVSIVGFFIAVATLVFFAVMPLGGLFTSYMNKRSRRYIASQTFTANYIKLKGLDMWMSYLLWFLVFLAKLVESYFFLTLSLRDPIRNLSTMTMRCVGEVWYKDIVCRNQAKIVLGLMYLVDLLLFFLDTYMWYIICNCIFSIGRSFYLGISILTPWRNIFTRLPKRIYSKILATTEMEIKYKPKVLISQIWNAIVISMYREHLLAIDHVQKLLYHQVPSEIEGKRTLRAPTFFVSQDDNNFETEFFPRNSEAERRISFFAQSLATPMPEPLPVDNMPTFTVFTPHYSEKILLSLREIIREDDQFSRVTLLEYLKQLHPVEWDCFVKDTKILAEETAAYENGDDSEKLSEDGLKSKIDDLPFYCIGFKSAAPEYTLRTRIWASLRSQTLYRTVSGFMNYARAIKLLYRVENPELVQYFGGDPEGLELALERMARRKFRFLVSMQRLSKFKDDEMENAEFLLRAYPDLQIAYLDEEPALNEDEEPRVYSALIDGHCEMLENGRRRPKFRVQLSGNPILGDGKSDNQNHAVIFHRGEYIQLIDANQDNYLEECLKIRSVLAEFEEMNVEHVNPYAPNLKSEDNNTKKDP

[1] = AUC (0 to 6 hrs) in rat at 10 mg/kg, po administered with methylcellulose; assay type: ADME, organism-based; parameters: time < 6 hr, dose 10 mg/kg, route oral; details: in vivo
Cytochrome P450 2C9 = Cytochrome P450 2C9 (Homo sapiens, UniProt P11712); assay: Inhibition of CYP2C9 at 30 uM; assay type: ADME
Cytochrome P450 2C9, sequence (P11712 whole entry): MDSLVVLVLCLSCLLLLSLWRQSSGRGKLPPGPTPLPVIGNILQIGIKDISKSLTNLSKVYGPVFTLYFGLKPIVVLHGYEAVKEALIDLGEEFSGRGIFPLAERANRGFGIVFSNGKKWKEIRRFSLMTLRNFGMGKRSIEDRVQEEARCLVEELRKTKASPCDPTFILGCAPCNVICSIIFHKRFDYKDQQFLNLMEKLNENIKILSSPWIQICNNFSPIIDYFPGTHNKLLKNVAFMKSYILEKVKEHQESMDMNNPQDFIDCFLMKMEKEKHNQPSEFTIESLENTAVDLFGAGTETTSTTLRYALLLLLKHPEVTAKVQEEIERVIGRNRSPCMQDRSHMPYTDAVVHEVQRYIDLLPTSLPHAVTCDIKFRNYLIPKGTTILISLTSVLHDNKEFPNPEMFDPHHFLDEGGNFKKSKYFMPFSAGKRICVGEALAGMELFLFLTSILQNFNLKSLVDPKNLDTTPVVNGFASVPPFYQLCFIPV

Candida glabrata [2] = assay: Antifungal activity against Candida glabrata C624 infected in immunocompromized mouse assessed as log10 reduction in CFU in kidney at 30 mg/kg, poqd for seven days (reference value: 4.28 log10 CFU)
Cytochrome P450 3A4 = Cytochrome P450 3A4 (Homo sapiens, UniProt P08684); assay: Inhibition of CYP3A4 at 30 uM; assay type: ADME
Cytochrome P450 3A4, sequence (P08684 whole entry): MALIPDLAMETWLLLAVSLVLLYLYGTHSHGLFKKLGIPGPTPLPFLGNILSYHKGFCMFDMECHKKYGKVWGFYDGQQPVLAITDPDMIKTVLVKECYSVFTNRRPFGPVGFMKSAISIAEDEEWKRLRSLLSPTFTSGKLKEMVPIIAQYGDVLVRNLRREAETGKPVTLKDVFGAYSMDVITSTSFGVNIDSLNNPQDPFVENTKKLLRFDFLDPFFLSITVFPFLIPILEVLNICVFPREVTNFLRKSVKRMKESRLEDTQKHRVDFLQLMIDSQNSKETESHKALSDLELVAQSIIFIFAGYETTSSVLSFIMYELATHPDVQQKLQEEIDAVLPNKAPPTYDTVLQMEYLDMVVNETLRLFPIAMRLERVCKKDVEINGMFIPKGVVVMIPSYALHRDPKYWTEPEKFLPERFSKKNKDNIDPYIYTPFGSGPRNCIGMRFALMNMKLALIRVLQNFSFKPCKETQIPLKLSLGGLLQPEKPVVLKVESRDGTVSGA

Candida glabrata [3] = assay: Antifungal activity against Candida glabrata C624 infected in immunocompromized mouse assessed as log10 reduction in CFU in kidney at 10 mg/kg, poqd for seven days (reference value: 4.28 log10 CFU)
[4] = AUC (0 to 8 hrs) in dog at 2 mg/kg, po administered with methylcellulose and HPBCD; assay type: ADME, organism-based, Canis lupus familiaris; parameters: time < 8 hr, dose 2 mg/kg, route oral; details: in vivo
Cytochrome P450 2D6 = Cytochrome P450 2D6 (Homo sapiens, UniProt P10635); assay: Inhibition of CYP2D6 at 30 uM; assay type: ADME
Cytochrome P450 2D6, sequence (P10635 whole entry): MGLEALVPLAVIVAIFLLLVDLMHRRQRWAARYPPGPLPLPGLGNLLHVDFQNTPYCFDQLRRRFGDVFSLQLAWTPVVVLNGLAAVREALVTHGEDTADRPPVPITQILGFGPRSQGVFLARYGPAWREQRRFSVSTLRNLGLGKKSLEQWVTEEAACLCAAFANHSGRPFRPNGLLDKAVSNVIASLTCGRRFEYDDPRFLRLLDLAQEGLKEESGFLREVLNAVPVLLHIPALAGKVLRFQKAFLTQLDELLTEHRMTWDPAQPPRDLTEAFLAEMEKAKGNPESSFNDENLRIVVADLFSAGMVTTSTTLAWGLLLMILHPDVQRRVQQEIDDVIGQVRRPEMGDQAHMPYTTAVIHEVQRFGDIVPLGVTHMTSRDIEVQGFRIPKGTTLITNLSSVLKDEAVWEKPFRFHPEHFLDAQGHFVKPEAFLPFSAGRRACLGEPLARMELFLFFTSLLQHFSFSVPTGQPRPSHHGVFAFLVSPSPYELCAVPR

Hepatocyte [5] = assay: Clearance in rat hepatocytes measured per molar mass of cells; assay type: ADME, cell-based, Liver
[6] = Clearance in dog hepatocytes measured per molar mass of cells; assay type: ADME, cell-based, Canis lupus familiaris, Liver, Hepatocyte
Aspergillus fumigatus = assay: Antifungal activity against Aspergillus fumigatus ND158 by broth dilution method; assay type: functional; details: read-out: MEC
Hepatocyte [7] = assay: Clearance in human hepatocytes measured per molar mass of cells; assay type: ADME, cell-based, Liver
hERG (KCNH2) = hERG (KCNH2) (Homo sapiens, UniProt Q12809); assay: Inhibition of human ERG at 1 uM by patch clamp assay
hERG (KCNH2), sequence (Q12809 whole entry): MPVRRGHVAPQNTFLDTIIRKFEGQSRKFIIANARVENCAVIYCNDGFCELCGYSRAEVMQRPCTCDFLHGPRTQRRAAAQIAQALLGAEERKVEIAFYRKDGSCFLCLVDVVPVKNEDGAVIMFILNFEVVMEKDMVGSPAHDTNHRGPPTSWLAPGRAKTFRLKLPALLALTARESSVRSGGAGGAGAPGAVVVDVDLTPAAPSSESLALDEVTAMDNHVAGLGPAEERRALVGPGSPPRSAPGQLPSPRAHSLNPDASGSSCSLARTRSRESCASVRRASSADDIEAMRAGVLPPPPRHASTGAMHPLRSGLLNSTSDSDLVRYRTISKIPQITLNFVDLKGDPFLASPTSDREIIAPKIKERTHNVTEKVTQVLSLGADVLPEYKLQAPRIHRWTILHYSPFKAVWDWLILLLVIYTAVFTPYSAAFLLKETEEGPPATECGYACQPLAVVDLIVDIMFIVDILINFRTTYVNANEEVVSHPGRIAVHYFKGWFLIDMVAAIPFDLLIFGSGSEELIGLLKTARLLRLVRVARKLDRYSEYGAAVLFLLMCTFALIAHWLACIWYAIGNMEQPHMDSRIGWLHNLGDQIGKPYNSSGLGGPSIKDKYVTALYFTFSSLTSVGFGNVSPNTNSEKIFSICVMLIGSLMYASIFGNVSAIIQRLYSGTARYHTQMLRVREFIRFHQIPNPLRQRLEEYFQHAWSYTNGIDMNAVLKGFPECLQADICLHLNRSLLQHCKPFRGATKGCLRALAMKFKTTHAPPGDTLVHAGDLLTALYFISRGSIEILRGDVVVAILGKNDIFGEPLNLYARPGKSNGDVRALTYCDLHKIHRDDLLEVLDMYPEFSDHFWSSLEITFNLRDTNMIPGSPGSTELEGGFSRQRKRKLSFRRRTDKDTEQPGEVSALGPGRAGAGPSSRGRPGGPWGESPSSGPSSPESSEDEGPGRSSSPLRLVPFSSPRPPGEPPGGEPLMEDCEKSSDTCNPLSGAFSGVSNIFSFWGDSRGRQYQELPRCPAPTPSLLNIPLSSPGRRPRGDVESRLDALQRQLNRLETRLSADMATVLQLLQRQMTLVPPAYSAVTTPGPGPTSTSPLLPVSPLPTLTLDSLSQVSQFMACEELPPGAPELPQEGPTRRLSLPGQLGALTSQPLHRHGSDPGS

Row | Structure (SMILES) | MIC (Nakaseomyces glabratus) [µg/mL] | MIC (Candida albicans) [µg/mL] | IC50 (Beta-1,3-glucan synthase) [nM] | also measured
1 | CC1CN(S(=O)(=O)Cc2ccccc2)CCN1c1cnn(-c2ccccc2)c(=O)c1OC1CCCCC1 (stereo unspecified) | 0.39 (≈ 0.746 µM) | 6.3 (≈ 12.1 µM) | 4210 | –
2 | CC(C)S(=O)(=O)N1CCN(c2cnn(-c3cccc(Cl)c3)c(=O)c2OC2CCCC2)CC1 | 0.1 (≈ 0.208 µM) | 3.1 (≈ 6.44 µM) | 1080 | AUC(0-t) at 6 h [1]: 490 ng·h/mL
3 | O=c1c(C2CCCCC2)c(N2CCN(S(=O)(=O)Cc3ccccc3)CC2)cnn1-c1ccccc1 | > 20 | > 20 | 4470 | –
4 | CC(C)S(=O)(=O)N1CCN(c2cnn(-c3ccccc3)c(=O)c2OC2CCCC2)CC1 | 0.2 (≈ 0.448 µM) | – | 3810 | MIC50 (Candida albicans): 25 µg/mL (≈ 56 µM); AUC(0-t) at 6 h [1]: 1600 ng·h/mL
5 | O=c1c(OC2CCCCC2)c(N2CCN(S(=O)(=O)Cc3ccccc3)CC2)cnn1-c1ccccc1 | 0.05 (≈ 0.0983 µM) | 0.78 (≈ 1.53 µM) | 1040 | –
6 | CC(C)S(=O)(=O)N1CCN(c2cnn(-c3cccc(O)c3)c(=O)c2OC2CCCC2)CC1 | 2.5 (≈ 5.4 µM) | > 20 | 1950 | –
7 | O=c1c(OC2CCCC2)c(N2CCN(S(=O)(=O)c3ccccn3)CC2)cnn1-c1ccccc1 | 0.63 (≈ 1.31 µM) | 5 (≈ 10.4 µM) | 2700 | –
8 | CC(C)S(=O)(=O)N1CCN(c2cnn(-c3cc(F)cc(F)c3)c(=O)c2OC2CCC(F)C2)CC1 (racemic) | 0.1 (≈ 0.2 µM) | 6.3 (≈ 12.6 µM) | 1240 | inhibition (INH) (Cytochrome P450 2C9): Not Active; log10cfu (Candida glabrata [2]): 1.3; inhibition (INH) (Cytochrome P450 3A4): Not Active; log10cfu (Candida glabrata [3]): 4.16; AUC(0-t) at 6 h [1]: 2100 ng·h/mL; AUC(0-t) at 8 h [4]: 3500 ng·h/mL; inhibition (INH) (Cytochrome P450 2D6): Not Active; CL (Hepatocyte [5]): 2.4 µL/min; CL [6]: 1.7 µL/min; minimal effective concentration (Aspergillus fumigatus): 1.6 µg/mL; CL (Hepatocyte [7]): 1 µL/min; inhibition at 1 µM (hERG (KCNH2)): 22%
9 | CC(C)S(=O)(=O)N1CCN(c2cnn(-c3cccnc3)c(=O)c2OC2CCCC2)CC1 | 1.6 (≈ 3.57 µM) | > 50 | 13600 | –
10 | O=c1c(OC2CCCCC2)c(N2CC3CC2CN3S(=O)(=O)Cc2ccccc2)cnn1-c1ccccc1 (stereo unspecified) | > 50 | > 50 | > 19200 | –
11 | CCCCCCCSc1c(N2CCN(S(=O)(=O)Cc3ccccc3)CC2)cnn(-c2ccccc2)c1=O | 0.78 (≈ 1.44 µM) | – | 2030 | MIC50 (Candida albicans): 3.1 µg/mL (≈ 5.73 µM)
12 | O=c1c(OC2CCCC2)c(N2CCN(S(=O)(=O)c3ccccc3)CC2)cnn1-c1ccccc1 | 0.15 (≈ 0.312 µM) | – | > 20800 | MIC50 (Candida albicans): 0.78 µg/mL (≈ 1.62 µM)
13 | CC(C)S(=O)(=O)N1CCN(c2cnn(-c3cccc(F)c3)c(=O)c2OC2CCC(F)(F)C2)CC1 (stereo unspecified) | 0.78 (≈ 1.56 µM) | 6.3 (≈ 12.6 µM) | 2200 | AUC(0-t) at 6 h [1]: 470 ng·h/mL; minimal effective concentration (Aspergillus fumigatus): 3.1 µg/mL
14 | CC(C)S(=O)(=O)N1CCN(c2cnn(-c3cc(F)cc(Cl)c3)c(=O)c2OC2CCCC2)CC1 | 0.06 (≈ 0.12 µM) | 6.3 (≈ 12.6 µM) | 501 | AUC(0-t) at 6 h [1]: 490 ng·h/mL
15 | CCOCCCNc1c(N2CCN(S(=O)(=O)Cc3ccccc3)CC2)cnn(-c2ccccc2)c1=O | 0.78 (≈ 1.52 µM) | > 50 | 4500 | –
16 | O=c1c(OC2CCCC2)c(N2CCN(S(=O)(=O)Cc3cccnc3)CC2)cnn1-c1ccccc1 | 0.13 (≈ 0.262 µM) | 8.4 (≈ 16.9 µM) | 404 | –
17 | C[C@@H]1CN(c2cnn(-c3ccccc3)c(=O)c2OC2CCCCC2)CCN1S(=O)(=O)Cc1ccccc1 | 0.78 (≈ 1.49 µM) | – | 5360 | MIC50 (Candida albicans): 19 µg/mL (≈ 36.4 µM)
18 | CC(C)S(=O)(=O)N1CCN(c2cnn(-c3nccs3)c(=O)c2OC2CCCC2)CC1 | 8.4 (≈ 18.5 µM) | > 20 | > 22000 | –
